Laboratory results: ChEMBL document CHEMBL4507301 (2021)

Experiments:
[1] = biological target: Peripheral plasma membrane protein CASK (Homo sapiens) (UniProt O14936); conditions: Compound concentration 1000.0 nM
[2] = biological target: Serine/threonine-protein kinase 38 (Homo sapiens) (UniProt Q15208); conditions: Compound concentration 1000.0 nM
[3] = biological target: Serine/threonine-protein kinase RIO3 (Homo sapiens) (UniProt O14730); conditions: Compound concentration 1000.0 nM
[4] = biological target: Ribosomal protein S6 kinase alpha-1 (Homo sapiens) (UniProt Q15418); conditions: Compound concentration 1000.0 nM
[5] = biological target: Calcium/calmodulin-dependent protein kinase kinase 2 (Homo sapiens) (UniProt Q96RR4); conditions: Compound concentration 1000.0 nM
[6] = biological target: Atypical kinase COQ8A, mitochondrial (Homo sapiens) (UniProt Q8NI60); conditions: Compound concentration 1000.0 nM
[7] = tested on: Receptor-type tyrosine-protein kinase FLT3 (Homo sapiens), P36888 [D835H]; conditions: Compound concentration 1000.0 nM
[8] = biological target: Histamine H1 receptor (Homo sapiens) (UniProt P35367); conditions: Compound concentration 10.0 uM
[9] = biological target: Serine/threonine-protein kinase ULK3 (Homo sapiens) (UniProt Q6PHR2); conditions: Compound concentration 1000.0 nM
[10] = biological target: Ribosomal protein S6 kinase alpha-5 (Homo sapiens) (UniProt O75582); conditions: Compound concentration 1000.0 nM
[11] = biological target: Mitogen-activated protein kinase kinase kinase 4 (Homo sapiens) (UniProt Q9Y6R4); conditions: Compound concentration 1000.0 nM
[12] = biological target: Mitogen-activated protein kinase 6 (Homo sapiens) (UniProt Q16659); conditions: Compound concentration 1000.0 nM
[13] = biological target: Ribosomal protein S6 kinase alpha-6 (Homo sapiens) (UniProt Q9UK32); conditions: Compound concentration 1000.0 nM
[14] = tested on: Tyrosine-protein kinase ABL1 (Homo sapiens), P00519 [T315I]; conditions: Compound concentration 1000.0 nM
[15] = biological target: Serine/threonine-protein kinase 3 (Homo sapiens) (UniProt Q13188); conditions: Compound concentration 1000.0 nM
[16] = biological target: Bone morphogenetic protein receptor type-2 (Homo sapiens) (UniProt Q13873); conditions: Compound concentration 1000.0 nM
[17] = biological target: Interleukin-1 receptor-associated kinase 3 (Homo sapiens) (UniProt Q9Y616); conditions: Compound concentration 1000.0 nM
[18] = biological target: Serine/threonine-protein kinase RIO2 (Homo sapiens) (UniProt Q9BVS4); conditions: Compound concentration 1000.0 nM
[19] = biological target: Dual specificity mitogen-activated protein kinase kinase 3 (Homo sapiens) (UniProt P46734); conditions: Compound concentration 1000.0 nM
[20] = tested on: Tyrosine-protein kinase ABL1 (Homo sapiens), P00519 [F317L]; conditions: Compound concentration 1000.0 nM
[21] = biological target: Cyclin-dependent kinase 3 (Homo sapiens) (UniProt Q00526); conditions: Compound concentration 1000.0 nM
[22] = tested on: Epidermal growth factor receptor (Homo sapiens), P00533 [L861Q]; conditions: Compound concentration 1000.0 nM
[23] = biological target: Glycogen synthase kinase-3 alpha (Homo sapiens) (UniProt P49840); conditions: Compound concentration 1000.0 nM
[24] = biological target: Tyrosine-protein kinase receptor UFO (Homo sapiens) (UniProt P30530); conditions: Compound concentration 1000.0 nM
[25] = biological target: Tyrosine-protein kinase Lck (Homo sapiens) (UniProt P06239); conditions: Compound concentration 1000.0 nM
[26] = tested on: Receptor-type tyrosine-protein kinase FLT3 (Homo sapiens), P36888 [N841I]; conditions: Compound concentration 1000.0 nM
[27] = biological target: Cyclin-dependent kinase 2 (Homo sapiens) (UniProt P24941); conditions: Compound concentration 1000.0 nM
[28] = biological target: GABA-A receptor; anion channel (Rattus norvegicus) (UniProt O09028+P15431+P18506+P18508+P19969+P20236+P23574+P23576+P28471+P28473+P30191+P62813+P63079+P63138+Q91ZM7+Q9ES14); conditions: Compound concentration 10.0 uM
[29] = biological target: Serine/threonine-protein kinase D2 (Homo sapiens) (UniProt Q9BZL6); conditions: Compound concentration 1000.0 nM
[30] = biological target: Serine/threonine-protein kinase DCLK2 (Homo sapiens) (UniProt Q8N568); conditions: Compound concentration 1000.0 nM
[31] = biological target: Discoidin domain-containing receptor 2 (Homo sapiens) (UniProt Q16832); conditions: Compound concentration 1000.0 nM
[32] = tested on: Epidermal growth factor receptor (Homo sapiens), P00533 [L858R]; conditions: Compound concentration 1000.0 nM
[33] = biological target: Serine/threonine-protein kinase Nek3 (Homo sapiens) (UniProt P51956); conditions: Compound concentration 1000.0 nM
[34] = biological target: Tyrosine-protein kinase Mer (Homo sapiens) (UniProt Q12866); conditions: Compound concentration 1000.0 nM
[35] = biological target: Tyrosine-protein kinase Fer (Homo sapiens) (UniProt P16591); conditions: Compound concentration 1000.0 nM
[36] = biological target: Calcium-dependent protein kinase 1 (Plasmodium falciparum) (UniProt P62344); conditions: Compound concentration 1000.0 nM
[37] = biological target: Serine/threonine-protein kinase 32C (Homo sapiens) (UniProt Q86UX6); conditions: Compound concentration 1000.0 nM
[38] = biological target: Fibroblast growth factor receptor 2 (Homo sapiens) (UniProt P21802); conditions: Compound concentration 1000.0 nM
[39] = biological target: Serine/threonine-protein kinase 17A (Homo sapiens) (UniProt Q9UEE5); conditions: Compound concentration 1000.0 nM
[40] = biological target: Activated CDC42 kinase 1 (Homo sapiens) (UniProt Q07912); conditions: Compound concentration 1000.0 nM
[41] = biological target: Serine/threonine-protein kinase SIK2 (Homo sapiens) (UniProt Q9H0K1); conditions: Compound concentration 1000.0 nM
[42] = biological target: Tyrosine-protein kinase Fyn (Homo sapiens) (UniProt P06241); conditions: Compound concentration 1000.0 nM
[43] = biological target: Glycogen synthase kinase-3 beta (Homo sapiens) (UniProt P49841); conditions: Compound concentration 1000.0 nM
[44] = tested on: Proto-oncogene tyrosine-protein kinase receptor Ret (Homo sapiens), P07949 [V804M]; conditions: Compound concentration 1000.0 nM
Chain of Proto-oncogene tyrosine-protein kinase receptor Ret (Homo sapiens), P07949 [V804M] (P07949 whole entry V804M): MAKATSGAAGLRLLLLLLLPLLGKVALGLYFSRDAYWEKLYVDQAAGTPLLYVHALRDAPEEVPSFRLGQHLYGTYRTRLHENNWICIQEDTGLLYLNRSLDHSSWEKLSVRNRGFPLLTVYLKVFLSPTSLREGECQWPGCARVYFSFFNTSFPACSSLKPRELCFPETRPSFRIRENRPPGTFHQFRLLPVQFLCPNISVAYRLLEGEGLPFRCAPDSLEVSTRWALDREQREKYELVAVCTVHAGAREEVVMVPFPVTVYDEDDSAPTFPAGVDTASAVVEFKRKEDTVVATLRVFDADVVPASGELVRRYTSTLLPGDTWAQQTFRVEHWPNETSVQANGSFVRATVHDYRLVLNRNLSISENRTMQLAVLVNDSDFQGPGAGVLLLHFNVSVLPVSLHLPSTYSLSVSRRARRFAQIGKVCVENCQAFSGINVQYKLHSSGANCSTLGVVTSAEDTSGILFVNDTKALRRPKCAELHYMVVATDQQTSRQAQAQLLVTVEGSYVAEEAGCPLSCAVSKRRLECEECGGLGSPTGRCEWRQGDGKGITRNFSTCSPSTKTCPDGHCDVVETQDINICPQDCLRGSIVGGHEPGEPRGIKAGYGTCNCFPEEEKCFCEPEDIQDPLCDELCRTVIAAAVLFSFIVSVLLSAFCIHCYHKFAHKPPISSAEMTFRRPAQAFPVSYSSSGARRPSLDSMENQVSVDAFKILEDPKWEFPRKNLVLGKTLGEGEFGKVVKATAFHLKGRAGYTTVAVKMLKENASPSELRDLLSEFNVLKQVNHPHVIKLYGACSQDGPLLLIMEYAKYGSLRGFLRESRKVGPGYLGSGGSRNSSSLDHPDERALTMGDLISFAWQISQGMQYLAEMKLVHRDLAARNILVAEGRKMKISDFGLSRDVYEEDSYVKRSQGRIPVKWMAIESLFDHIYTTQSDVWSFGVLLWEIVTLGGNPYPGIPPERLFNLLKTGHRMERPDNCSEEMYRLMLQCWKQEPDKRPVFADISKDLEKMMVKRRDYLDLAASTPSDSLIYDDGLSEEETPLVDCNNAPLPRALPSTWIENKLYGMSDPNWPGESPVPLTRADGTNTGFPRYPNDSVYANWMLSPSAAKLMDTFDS

Chain of Peripheral plasma membrane protein CASK (Homo sapiens) (O14936 whole entry): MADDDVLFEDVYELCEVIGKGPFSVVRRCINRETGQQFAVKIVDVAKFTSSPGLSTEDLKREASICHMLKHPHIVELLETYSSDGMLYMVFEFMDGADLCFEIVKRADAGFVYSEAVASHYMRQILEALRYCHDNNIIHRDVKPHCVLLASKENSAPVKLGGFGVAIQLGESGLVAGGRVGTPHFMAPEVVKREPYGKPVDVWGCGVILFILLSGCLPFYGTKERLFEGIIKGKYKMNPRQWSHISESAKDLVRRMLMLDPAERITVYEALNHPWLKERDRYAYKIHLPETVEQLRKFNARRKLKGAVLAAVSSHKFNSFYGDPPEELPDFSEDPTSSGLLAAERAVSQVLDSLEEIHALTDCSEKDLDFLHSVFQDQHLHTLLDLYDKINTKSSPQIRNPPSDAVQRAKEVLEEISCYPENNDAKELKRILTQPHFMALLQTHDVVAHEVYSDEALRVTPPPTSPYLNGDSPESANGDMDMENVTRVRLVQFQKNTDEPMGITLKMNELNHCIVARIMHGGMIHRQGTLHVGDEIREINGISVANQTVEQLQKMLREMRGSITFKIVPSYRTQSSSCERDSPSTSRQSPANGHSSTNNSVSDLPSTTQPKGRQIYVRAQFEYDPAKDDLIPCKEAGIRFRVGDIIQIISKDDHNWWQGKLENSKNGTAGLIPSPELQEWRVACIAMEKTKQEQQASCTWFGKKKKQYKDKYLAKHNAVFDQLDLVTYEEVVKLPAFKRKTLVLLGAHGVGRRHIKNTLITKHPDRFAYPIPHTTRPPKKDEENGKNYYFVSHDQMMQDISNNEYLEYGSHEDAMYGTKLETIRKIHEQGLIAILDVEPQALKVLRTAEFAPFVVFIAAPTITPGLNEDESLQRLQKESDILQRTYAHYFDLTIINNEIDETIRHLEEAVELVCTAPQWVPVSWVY
Chain of Tyrosine-protein kinase Fer (Homo sapiens) (P16591 whole entry, looked up): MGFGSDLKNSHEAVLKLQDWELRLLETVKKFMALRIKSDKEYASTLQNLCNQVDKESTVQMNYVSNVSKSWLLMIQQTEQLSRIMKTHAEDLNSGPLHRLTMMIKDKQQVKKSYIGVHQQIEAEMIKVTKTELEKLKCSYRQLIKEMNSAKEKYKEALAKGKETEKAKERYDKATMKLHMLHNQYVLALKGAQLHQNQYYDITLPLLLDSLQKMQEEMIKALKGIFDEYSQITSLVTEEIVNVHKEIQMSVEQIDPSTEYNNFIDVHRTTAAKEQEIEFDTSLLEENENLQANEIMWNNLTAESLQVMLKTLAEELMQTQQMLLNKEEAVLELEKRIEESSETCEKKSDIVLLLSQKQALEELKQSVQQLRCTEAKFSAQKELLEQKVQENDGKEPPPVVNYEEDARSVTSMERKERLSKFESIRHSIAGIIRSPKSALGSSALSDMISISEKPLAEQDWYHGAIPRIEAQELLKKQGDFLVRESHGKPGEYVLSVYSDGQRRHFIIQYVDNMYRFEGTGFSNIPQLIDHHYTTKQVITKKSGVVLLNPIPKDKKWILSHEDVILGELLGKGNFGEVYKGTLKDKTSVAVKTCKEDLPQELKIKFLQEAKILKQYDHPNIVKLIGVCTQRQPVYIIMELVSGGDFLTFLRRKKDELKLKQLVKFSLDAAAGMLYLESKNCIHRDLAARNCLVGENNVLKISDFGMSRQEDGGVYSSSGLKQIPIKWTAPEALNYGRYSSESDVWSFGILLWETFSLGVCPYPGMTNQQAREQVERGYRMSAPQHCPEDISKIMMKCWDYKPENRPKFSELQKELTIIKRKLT
Chain of Tyrosine-protein kinase Lck (Homo sapiens) (P06239 2-509 limits assumed): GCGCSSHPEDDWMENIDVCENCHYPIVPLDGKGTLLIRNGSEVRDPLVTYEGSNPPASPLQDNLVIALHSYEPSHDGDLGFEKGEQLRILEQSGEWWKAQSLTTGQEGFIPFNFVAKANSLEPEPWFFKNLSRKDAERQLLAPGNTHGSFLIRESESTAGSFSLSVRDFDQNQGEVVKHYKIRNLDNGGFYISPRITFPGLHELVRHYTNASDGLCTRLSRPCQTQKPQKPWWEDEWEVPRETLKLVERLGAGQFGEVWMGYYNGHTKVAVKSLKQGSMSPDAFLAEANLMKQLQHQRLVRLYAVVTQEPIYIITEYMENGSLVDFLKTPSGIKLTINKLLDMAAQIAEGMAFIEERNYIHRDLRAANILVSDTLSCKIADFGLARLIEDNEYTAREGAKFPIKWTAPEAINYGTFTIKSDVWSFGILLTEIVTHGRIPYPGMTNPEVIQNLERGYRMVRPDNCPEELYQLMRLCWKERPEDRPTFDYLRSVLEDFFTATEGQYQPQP
Chain of Cyclin-dependent kinase 3 (Homo sapiens) (Q00526 whole entry, looked up): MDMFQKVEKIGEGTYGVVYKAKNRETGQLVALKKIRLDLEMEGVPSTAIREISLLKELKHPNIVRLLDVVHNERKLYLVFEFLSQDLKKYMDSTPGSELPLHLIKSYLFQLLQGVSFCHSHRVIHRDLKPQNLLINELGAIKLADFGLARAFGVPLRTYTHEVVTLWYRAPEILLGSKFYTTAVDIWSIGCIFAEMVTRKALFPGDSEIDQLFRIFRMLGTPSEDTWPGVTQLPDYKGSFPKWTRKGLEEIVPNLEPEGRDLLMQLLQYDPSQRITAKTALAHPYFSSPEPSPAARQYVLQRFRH
Chain of Ribosomal protein S6 kinase alpha-1 (Homo sapiens) (Q15418 whole entry): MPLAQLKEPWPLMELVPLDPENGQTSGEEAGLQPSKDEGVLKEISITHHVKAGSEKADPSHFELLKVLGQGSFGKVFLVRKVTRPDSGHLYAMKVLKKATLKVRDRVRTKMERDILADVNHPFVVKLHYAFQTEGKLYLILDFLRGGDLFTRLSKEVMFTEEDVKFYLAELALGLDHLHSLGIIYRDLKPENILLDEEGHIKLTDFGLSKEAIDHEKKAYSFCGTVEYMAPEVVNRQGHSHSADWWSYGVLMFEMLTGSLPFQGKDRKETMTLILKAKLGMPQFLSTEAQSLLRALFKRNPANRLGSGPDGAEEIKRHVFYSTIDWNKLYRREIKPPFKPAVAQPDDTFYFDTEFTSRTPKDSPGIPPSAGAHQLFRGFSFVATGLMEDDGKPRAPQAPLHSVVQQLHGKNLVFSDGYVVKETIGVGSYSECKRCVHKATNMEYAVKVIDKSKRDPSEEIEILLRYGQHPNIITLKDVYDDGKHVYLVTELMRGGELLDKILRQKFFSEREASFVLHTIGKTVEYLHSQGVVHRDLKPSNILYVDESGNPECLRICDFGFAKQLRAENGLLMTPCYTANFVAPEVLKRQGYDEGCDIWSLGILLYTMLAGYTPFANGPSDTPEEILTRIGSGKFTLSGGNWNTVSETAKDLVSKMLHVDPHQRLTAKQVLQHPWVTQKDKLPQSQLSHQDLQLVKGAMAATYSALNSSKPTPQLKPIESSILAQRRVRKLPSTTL
Chain of Calcium/calmodulin-dependent protein kinase kinase 2 (Homo sapiens) (Q96RR4 2-588 limits assumed): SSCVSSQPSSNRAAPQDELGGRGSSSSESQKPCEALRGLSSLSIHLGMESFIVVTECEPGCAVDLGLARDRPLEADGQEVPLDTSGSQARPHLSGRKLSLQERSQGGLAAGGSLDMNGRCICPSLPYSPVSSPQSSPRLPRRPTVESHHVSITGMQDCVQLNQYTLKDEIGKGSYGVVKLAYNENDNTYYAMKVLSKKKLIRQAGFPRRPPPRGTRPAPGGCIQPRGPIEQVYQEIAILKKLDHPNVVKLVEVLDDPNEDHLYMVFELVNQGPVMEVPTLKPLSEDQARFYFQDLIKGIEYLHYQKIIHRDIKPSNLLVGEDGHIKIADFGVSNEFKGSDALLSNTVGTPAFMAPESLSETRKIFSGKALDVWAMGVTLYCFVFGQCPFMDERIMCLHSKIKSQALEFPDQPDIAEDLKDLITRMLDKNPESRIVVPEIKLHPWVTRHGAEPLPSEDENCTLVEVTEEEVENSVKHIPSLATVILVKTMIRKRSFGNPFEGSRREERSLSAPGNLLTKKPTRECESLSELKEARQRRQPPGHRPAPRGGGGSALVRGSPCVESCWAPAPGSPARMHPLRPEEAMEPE

## C[C@H](c1cccc(C#N)c1)n1cc(Cl)cc(C(N)=O)c1=N [(R)-9s]
[1]
  residual activity: 82%
[2]
  residual activity: 87%
[3]
  residual activity: 100%
[4]
  residual activity: 100%
[5]
  residual activity: 100%
[6]
  residual activity: 88%
[7]
  residual activity: 80%
[8]
  inhibition: -6.96%
[9]
  residual activity: 64%
[10]
  residual activity: 68%
[11]
  residual activity: 47%
[12]
  residual activity: 0%
[13]
  residual activity: 91%
[14]
  residual activity: 92%
[15]
  residual activity: 84%
[16]
  residual activity: 97%
[17]
  residual activity: 99%
[18]
  residual activity: 74%
[19]
  residual activity: 73%
[20]
  residual activity: 83%
[21]
  residual activity: 100%
[22]
  residual activity: 100%
[23]
  residual activity: 61%
[24]
  residual activity: 100%
[25]
  residual activity: 100%
[26]
  residual activity: 97%
[27]
  residual activity: 100%
[28]
  inhibition: 0.16%
[29]
  residual activity: 58%
[30]
  residual activity: 88%
[31]
  residual activity: 100%
[32]
  residual activity: 86%
[33]
  residual activity: 66%
[34]
  residual activity: 96%
[35]
  residual activity: 100%
[36]
  residual activity: 86%
[37]
  residual activity: 100%
[38]
  residual activity: 43%
[39]
  residual activity: 85%
[40]
  residual activity: 83%
[41]
  residual activity: 100%
[42]
  residual activity: 42%
[43]
  residual activity: 95%
[44]
  residual activity: 100%

## C[C@@H](c1cccc(C#N)c1)n1cc(Cl)cc(C(N)=O)c1=N [(S)-9s]
[1]
  residual activity: 79%
[2]
  residual activity: 84%
[3]
  residual activity: 87%
[4]
  residual activity: 100%
[5]
  residual activity: 100%
[6]
  residual activity: 89%
[7]
  residual activity: 81%
[8]
  inhibition: -9.05%
[9]
  residual activity: 75%
[10]
  residual activity: 74%
[11]
  residual activity: 71%
[12]
  residual activity: 100%
[13]
  residual activity: 82%
[14]
  residual activity: 85%
[15]
  residual activity: 96%
[16]
  residual activity: 100%
[17]
  residual activity: 99%
[18]
  residual activity: 83%
[19]
  residual activity: 67%
[20]
  residual activity: 0%
[21]
  residual activity: 100%
[22]
  residual activity: 100%
[23]
  residual activity: 82%
[24]
  residual activity: 100%
[25]
  residual activity: 90%
[26]
  residual activity: 86%
[27]
  residual activity: 100%
[28]
  inhibition: 5.78%
[29]
  residual activity: 91%
[30]
  residual activity: 90%
[31]
  residual activity: 88%
[32]
  residual activity: 100%
[33]
  residual activity: 44%
[34]
  residual activity: 82%
[35]
  residual activity: 100%
[36]
  residual activity: 78%
[37]
  residual activity: 100%
[38]
  residual activity: 67%
[39]
  residual activity: 89%
[40]
  residual activity: 95%
[41]
  residual activity: 100%
[42]
  residual activity: 65%
[43]
  residual activity: 88%
[44]
  residual activity: 89%
